Reference: ChEMBL document CHEMBL1126519, “Addition of amines to methyl 3-dehydroquinate and 3-dehydroshikimate” (Bioorg Med Chem Lett, 1993)

Assay: pKA value in aqueous solution
Settings: aqueous solution

Compound | pKa
NCCc1ccccn1 | 9.52
CN(C)c1ccc(N)cc1 | 6.71
COC(=O)C(N)CCCCNC(=O)OC(C)(C)C (stereo not drawn) | 8.9
NCCc1ccccc1 [PHENETHYLAMINE] | 9.08
NCc1ccccn1 | 8.62
COC(=O)CN | 7.73
COC(=O)C(CCCCN)NC(=O)OC(C)(C)C (stereo not drawn) | 10.8

Same assay, conditions: buffer

Compound | pKA
Nc1ccccn1 [2-AMINOPYRIDINE] | 7.6
